In data set [1] the test system is Influenza A/Duck/MN/1525/81 (H5N1). Further details: species or system BALB/c mice. The settings on record: mouse, in vivo.
Data set [2] in a line: Tox controls of the oral treatment study in mice (Table 3). The following applies: 75 mg/kg/day p.o., bid × 5 beg −4 h; initial weight vs 18 h after final treatment.

Regarding `CCOC(=O)C1=C[C@@H](OC(CC)CC)[C@H](NC(C)=O)[C@@H](N)C1` [Tamiflu ™, oseltamivir phosphate], in data set [1], the “Number of surviving mice per group at day 19” value is 10/10 [100%] and the “surviving mice per group at day 19, percent” value was 10/10 [100%].
As for `NC(=O)c1ncn([C@@H]2O[C@H](CO)[C@@H](O)[C@H]2O)n1` [Ribavirin], in data set [2], the “Tox Controls Mean Host Weight Change” value is -0.8 g.
